Measured values from US8785482B2, “Cyclohexene benzotriazole derivatives” (Merck Sharp & Dohme Corp., priority 2011, dated 2014).
pEC50: −log10 of the molar value.

The molecules below were run against T1, recombinant human mGluR2 (Homo sapiens, UniProt Q14416) (assay: FLIPR Ca2+ mobilization assay, potentiation of glutamate response). Conditions: CHO dhfr- cells expressing human mGluR2 and Gα16, EC20 glutamate (900 nM).
T1 construct: expressed in transfected cells
Type: cell-based
Protocol: Potencies are determined as follows. The compounds of the present invention may be tested in a fluorescence laser imaging plate reader (FLIPR) based assay. This assay is a common functional assay to monitor Ca^2+ mobilization in whole cells expressing recombinant receptor coupled with a promiscuous G-protein. CHO dhfr-cells stably expressing recombinant human mGluR2 and Gα16 loaded with Fluo-4 AM (Invitrogen, Carlsbad Calif.) are treated with varying concentrations of compounds and the Ca^2+ response is monitored on a FLIPR384 (Molecular Devices, Sunnydale Calif.) for agonist activity. The potentiation response is monitored after a subsequent addition of an EC20 concentration of glutamate (900 nM). The maximum calcium response at each concentration of compound for agonism or potentiation are plotted as dose responses curves fitted with a four parameters logistic equation giving EC50 and Hill coefficient using the iterative non linear curve fitting software program.
Such results are indicative of the intrinsic activity of the compounds in use as potentiators of mGluR2 receptor activity.

T1 sequence (Q14416 19-872): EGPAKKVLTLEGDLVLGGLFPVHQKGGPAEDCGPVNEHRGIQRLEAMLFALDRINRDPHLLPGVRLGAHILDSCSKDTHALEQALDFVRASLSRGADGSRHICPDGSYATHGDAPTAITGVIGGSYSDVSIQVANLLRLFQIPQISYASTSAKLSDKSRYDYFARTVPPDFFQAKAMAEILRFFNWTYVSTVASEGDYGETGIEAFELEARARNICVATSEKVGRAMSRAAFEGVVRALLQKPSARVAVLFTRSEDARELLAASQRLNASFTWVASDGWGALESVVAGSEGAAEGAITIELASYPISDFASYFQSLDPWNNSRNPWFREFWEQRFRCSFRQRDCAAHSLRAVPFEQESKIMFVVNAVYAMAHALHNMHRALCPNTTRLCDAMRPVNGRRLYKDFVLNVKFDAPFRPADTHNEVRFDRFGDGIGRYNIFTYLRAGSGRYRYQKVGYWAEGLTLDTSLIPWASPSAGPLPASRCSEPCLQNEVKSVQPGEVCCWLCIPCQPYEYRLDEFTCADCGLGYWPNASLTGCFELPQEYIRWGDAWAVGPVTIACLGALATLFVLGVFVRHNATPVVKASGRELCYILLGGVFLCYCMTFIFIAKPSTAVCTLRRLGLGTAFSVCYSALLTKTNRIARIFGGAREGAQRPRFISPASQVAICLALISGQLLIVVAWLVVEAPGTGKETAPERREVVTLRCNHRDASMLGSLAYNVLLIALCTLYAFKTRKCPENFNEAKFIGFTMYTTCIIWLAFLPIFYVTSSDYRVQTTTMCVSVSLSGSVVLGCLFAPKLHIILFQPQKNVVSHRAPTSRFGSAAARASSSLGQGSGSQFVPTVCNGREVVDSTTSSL

Going from `CN1CC(c2ccc3c(nnn3CC(C)(C)C)c2Br)=CCC1CO` (centres unmarked) [Example 9, {5-[4-Bromo-1-(2,2-dimethylpropyl)-1H-benzotriazol-5-yl]-1-methyl-1,2,3,6-tetrahydropyridin-2-yl}methanol] to `OCC1CC=C(c2ccc3c(nnn3CC3CC3)c2Br)CC1` (centres unmarked) [Example 10, {4-[4-Bromo-1-(cyclopropylmethyl)-1H-benzotriazol-5-yl]cyclohex-3-en-1-yl}methanol], the pEC50 rises from 5.81 to 7.28 (1.47 log units).

First: OC1CC=C(c2ccc3c(nnn3CC3CC3)c2Cl)CC1 (centres unmarked) [Example 5, 4-[4-chloro-1-(cyclopropylmethyl)-1H-benzotriazol-5-yl]cyclohex-3-en-1-ol]
Second: OCC1CC=C(c2ccc3c(nnn3CC3CC3)c2Cl)CC1 (centres unmarked) [Example 2, {4-[4-Chloro-1-(cyclopropylmethyl)-1H-benzotriazol-5-yl]cyclohex-3-en-1-yl}methanol]
The pEC50 of the first is 0.72 log units lower: 6.39 for the first, 7.11 for the second. The second is the more potent here.

First: CN1C(=O)CN(CC2CC=C(c3ccc4c(nnn4CC4CC4)c3Br)CC2)C1=O (centres unmarked) [Example 11, 1-({4-[4-Bromo-1-(cyclopropylmethyl)-1H-benzotriazol-5-yl]cyclohex-3-en-1-yl}methyl)-3-methylimidazolidine-2,4-dione]
Second: CN1C(=O)CN(CC2CC=C(c3ccc4c(nnn4CC4CC4)c3Cl)CC2)C1=O (centres unmarked) [Example 3, 1-({4-[4-Chloro-1-(cyclopropylmethyl)-1H-benzotriazol-5-yl]cyclohex-3-en-1-yl}methyl)-3-methylimidazolidine-2,4-dione]
The pEC50 of the first is 0.27 log units higher: 8.04 for the first, 7.77 for the second.

First: CN1C(=O)CN(CC2CC=C(c3ccc4c(nnn4CC4CC4)c3C(F)(F)F)CC2)C1=O (centres unmarked) [Example 8, 1-({4-[1-(Cyclopropylmethyl)-4-(trifluoromethyl)-1H-benzotriazol-5-yl]cyclohex-3-en-1-yl}methyl)-3-methylimidazolidine-2,4-dione]
Second: COC(=O)C1CC=C(c2ccc3c(nnn3CC3CC3)c2C(F)(F)F)CC1 (centres unmarked) [Example 7, Methyl 4-[1-(cyclopropylmethyl)-4-(trifluoromethyl)-1H-benzotriazol-5-yl]cyclohex-3-ene-1-carboxylate]
The pEC50 of the first is 0.31 log units higher: 7.82 for the first, 7.51 for the second.

`Clc1c(C2=CCCCC2)ccc2c1nnn2CC1CC1` [Example 4, 4-chloro-5-cyclohex-1-en-1-yl-1-(cyclopropylmethyl)-1H-benzotriazole] and `N#CC1CC=C(c2ccc3c(nnn3CC3CC3)c2Cl)CC1` (centres unmarked) [Example 6, 4-[4-chloro-1-(cyclopropylmethyl)-1H-benzotriazol-5-yl]cyclohex-3-ene-1-carbonitrile] are within 0.2 log units of each other in pEC50: 6.02 for the first, 6.15 for the second.

In the case of `COC(=O)C1CC=C(c2ccc3c(nnn3CC3CC3)c2Cl)CC1` (centres unmarked) [Example 1, Methyl 4-[4-chloro-1-(cyclopropylmethyl)-1H-benzotriazol-5-yl]cyclohex-3-ene-1-carboxylate], the pEC50 was 6.43.
